Measured values: patent publication US7754741B2, “Pyridine derivatives as fungicidal compounds” (Bayer Cropscience S.A., priority 2003, dated 2010)

Legend:
Alternaria brassicae = test: In vivo test on Alternaria brassicae (leaf spot of crucifers); conditions: Alternaria brassicae; dose 330 ppm; radish plants sprayed 24 hours before contamination; grading 6 to 7 days after contamination vs control plants; read-out: protection (good (at least 50%) to total)
Description: In Vivo Test on Alternaria brassicae (Leaf Spot of crucifers)
(§1) The active ingredient tested is prepared by potter homogenisation in a concentrated suspension type formulation at 100 g/l. This suspension is then diluted with water to obtain the desired active material concentration.
Radish plants (Pernot variety) in starter cups, sown on a 50/50 peat soil-pozzolana substrate and grown at 18-20° C., are treated at the cotyledon stage by spraying with the aqueous suspension described above.
Plants, used as controls, are treated with an aqueous solution not containing the active material.
After 24 hours, the plants are contaminated by spraying them with an aqueous suspension of Alternaria brassicae spores (40,000 spores per cm^3). The spores are collected from a 12-13-day-old culture.
The contaminated radish plants are incubated for 6-7 days at about 18° C., under a humid atmosphere.
Grading is carried out 6 to 7 days after the contamination, in comparison with the control plants.

Pyrenophora teres = test: In vivo test on Pyrenophora teres (barley net blotch); conditions: Pyrenophora teres, 288 h; dose 330 ppm; barley plants sprayed 24 hours before contamination; grading 12 days after contamination vs control plants; read-out: protection (good (at least 50%) to total)
Description: In Vivo Test on Pyrenophora teres (Barley Net Blotch)
as §1
(§2) Barley plants (Express variety) in starter cups, sown on a 50/50 peat soil-pozzolana substrate and grown at 12° C., are treated at the 1-leaf stage (10 cm tall) by spraying with the aqueous suspension described above. Plants, used as controls, are treated with an aqueous solution not containing the active material.
After 24 hours, the plants are contaminated by spraying them with an aqueous suspension of Pyrenophora teres spores (12,000 spores per ml). The spores are collected from a 12-day-old culture The contaminated barley plants are incubated for 24 hours at about 20° C. and at 100% relative humidity, and then for 12 days at 80% relative humidity.

Botrytis cinerea = test: In vivo test on Botrytis cinerea (cucumber grey mould); conditions: Botrytis cinerea; dose 330 ppm; cucumber plants sprayed 24 hours before contamination; grading 5/7 days after contamination vs control plants; read-out: protection (good (at least 50%) to total)
Description: In Vivo Test on Botrytis cinerea (Cucumber Grey Mould)
as §1
as §2, with “Cucumber” for “Barley”, “(Marketer” for “(Express”, “18-20°” for “12°”, “cotyledon Z11” for “1-leaf”, “stage” for “stage (10 cm tall)”
After 24 hours, the plants are contaminated by depositing drops of an aqueous suspension of Botrytis cinerea spores (150,000 spores per ml) on upper surface of the leaves. The spores are collected from a 15-day-old culture and are suspended in a nutrient solution composed of: • 20 g/L of gelatin • 50 g/L of cane sugar • 2 g/L of NH4NO3 • 1 g/L of KH2PO4
The contaminated cucumber plants are settled for 5/7 days in a climatic room at 15-11° C. (day/night) and at 80% relative humidity.
Grading is carried out 5/7 days after the contamination, in comparison with the control plants. Under these conditions, good (at least 50%) to total protection is observed at a dose of 330 ppm with the following compounds :B-7, B-8, B-13, B-14, C-3, C-12, C-13, C-14, C-15, C-16, D-4, D-5, E-4, H-1, H-2, H-4, H-7, H-9, H-22, J-1, J-2, J-3, J-19, J-31, J-32, J-33, J-34, J-35, J-37, J-39, J-43, J-44, R-1, R-10, R-23, R-24, R-26, R-31, V-1, V-8.

| Compound | pest or weed control at 330 ppm (Alternaria brassicae) [%] | pest or weed control at 330 ppm (Pyrenophora teres) [%] | pest or weed control at 330 ppm (Botrytis cinerea) [%] |
| --- | --- | --- | --- |
| Cc1ccoc1C(=O)NCCc1ncc(C(F)(F)F)cc1Cl [Compound A-3] | ≥ 50 | – | – |
| O=C(NCCc1ncc(C(F)(F)F)cc1Cl)c1cc(-c2ccc(Cl)cc2)oc1C(F)(F)F [Compound B-2] | ≥ 50 | – | – |
| O=C(NCCc1ncc(C(F)(F)F)cc1Cl)c1ccoc1 [Compound B-3] | – | ≥ 50 | – |
| Cc1oc(-c2ccccc2)cc1C(=O)NCCc1ncc(C(F)(F)F)cc1Cl [Compound B-5] | ≥ 50 | – | – |
| O=C(NCCc1ncc(C(F)(F)F)cc1Cl)c1cc(-c2cccc(Cl)c2)oc1C(F)(F)F [Compound B-9] | ≥ 50 | – | – |
| O=C(NCCc1ncc(C(F)(F)F)cc1Cl)c1cc(-c2ccccc2)oc1C(F)(F)F [Compound B-10] | ≥ 50 | – | – |
| O=C(c1ccoc1I)N(CCc1ncc(C(F)(F)F)cc1Cl)C1CC1 [Compound B-15] | – | ≥ 50 | – |
| Cc1cc(C(=O)NCCc2nc(C)c(Cl)cc2Cl)c(C)o1 [Compound B-16] | ≥ 50 | ≥ 50 | – |
| O=C(NCCc1ncc(C(F)(F)F)cc1Cl)c1sccc1Br [Compound C-5] | ≥ 50 | ≥ 50 | – |
| O=C(NCCc1ncc(C(F)(F)F)cc1Cl)c1ccc(-c2ccccn2)s1 [Compound C-6] | ≥ 50 | – | – |
| CS(=O)(=O)c1csc(C(=O)NCCc2ncc(C(F)(F)F)cc2Cl)c1Cl [Compound C-8] | ≥ 50 | – | – |
| O=C(NCCc1ncc(Cl)cc1F)c1sccc1I [Compound C-15] | – | ≥ 50 | ≥ 50 |
| O=C(NCCc1ccc(Cl)cn1)c1sccc1I [Compound C-17] | – | ≥ 50 | – |
| O=C(NCCc1nc(Cl)ccc1Cl)c1sccc1I [Compound C-18] | ≥ 50 | – | – |
| O=C(c1sccc1I)N(CCc1ncc(C(F)(F)F)cc1Cl)C1CC1 [Compound C-20] | – | ≥ 50 | – |
| Cc1nc(CCNC(=O)c2sccc2I)c(Cl)cc1Cl [Compound C-21] | ≥ 50 | – | – |
| O=C(NCCc1nc(F)c(Cl)cc1Cl)c1sccc1I [Compound C-22] | – | ≥ 50 | – |
| O=C(NCCc1nc(F)c(Cl)cc1F)c1sccc1I [Compound C-23] | ≥ 50 | ≥ 50 | – |
| Cn1ccc(I)c1C(=O)NCCc1ncc(C(F)(F)F)cc1Cl [Compound F-3] | ≥ 50 | ≥ 50 | – |

| Compound | pest or weed control at 330 ppm (Alternaria brassicae) [%] | pest or weed control at 330 ppm (Pyrenophora teres) [%] | pest or weed control at 330 ppm (Botrytis cinerea) [%] |
| --- | --- | --- | --- |
| O=C(NCCc1ncc(C(F)(F)F)cc1Cl)c1ncoc1-c1ccccc1 [Compound G-1] | ≥ 50 | ≥ 50 | – |
| Cc1cc(C(=O)NCCc2ncc(C(F)(F)F)cc2Cl)nn1C(C)(C)C [Compound I-1] | ≥ 50 | ≥ 50 | – |
| O=C(NCCc1ncc(C(F)(F)F)cc1Cl)c1cnn(-c2ccccc2)c1C(F)(F)F [Compound J-4] | ≥ 50 | – | – |
| O=C(NCCc1ncc(C(F)(F)F)cc1Cl)c1cnn(-c2ccc(Cl)cc2)c1C(F)(F)F [Compound J-5] | ≥ 50 | – | – |
| Cn1ncc(C(=O)NCCc2ncc(C(F)(F)F)cc2Cl)c1Cl [Compound J-6] | ≥ 50 | – | – |
| Cc1c(C(=O)NCCc2ncc(C(F)(F)F)cc2Cl)cnn1-c1ccc(F)cc1 [Compound J-7] | – | ≥ 50 | – |
| COc1ccc(-n2ncc(C(=O)NCCc3ncc(C(F)(F)F)cc3Cl)c2C)cc1 [Compound J-8] | – | ≥ 50 | – |
| Cc1ccccc1-n1ncc(C(=O)NCCc2ncc(C(F)(F)F)cc2Cl)c1C [Compound J-10] | – | ≥ 50 | – |
| CCCc1c(C(=O)NCCc2ncc(C(F)(F)F)cc2Cl)cnn1-c1ccc(Cl)cc1 [Compound J-12] | ≥ 50 | – | – |
| O=C(NCCc1ncc(C(F)(F)F)cc1Cl)c1cnn(-c2ccc([N+](=O)[O-])cc2)c1C(F)(F)F [Compound J-13] | ≥ 50 | – | – |
| Cn1cc(C(=O)N(CCc2ncc(C(F)(F)F)cc2Cl)C2CC2)c(C(F)(F)F)n1 [Compound J-23] | – | ≥ 50 | – |
| Cn1cc(C(=O)NCCc2ccc(C(F)(F)F)c(Cl)n2)c(C(F)(F)F)n1 [Compound J-24] | ≥ 50 | ≥ 50 | – |
| Cc1nc(CCNC(=O)c2cn(C)nc2C(F)(F)F)c(Cl)cc1Cl [Compound J-25] | ≥ 50 | ≥ 50 | – |
| Cn1cc(C(=O)NCCc2nc(F)c(Cl)cc2Cl)c(C(F)(F)F)n1 [Compound J-26] | ≥ 50 | ≥ 50 | – |
| Cn1cc(C(=O)NCCc2ccc(Cl)cn2)c(C(F)F)n1 [Compound J-36] | ≥ 50 | ≥ 50 | – |
| CC(C)ON=CCc1cnc(CCNC(=O)c2cn(C)nc2C(F)F)c(Cl)c1 [Compound J-38] | ≥ 50 | – | – |
| Cc1nn(C)c(F)c1C(=O)NCCc1ncc(Cl)cc1F [Compound J-49] | ≥ 50 | ≥ 50 | – |
| Cc1nn(C)c(F)c1C(=O)NCCc1nc(Cl)c(Cl)cc1Cl [Compound J-50] | ≥ 50 | ≥ 50 | – |
| Cc1nn(C)c(F)c1C(=O)N(CCc1ncc(C(F)(F)F)cc1Cl)C1CC1 [Compound J-52] | ≥ 50 | ≥ 50 | – |

| Compound | pest or weed control at 330 ppm (Alternaria brassicae) [%] | pest or weed control at 330 ppm (Pyrenophora teres) [%] | pest or weed control at 330 ppm (Botrytis cinerea) [%] |
| --- | --- | --- | --- |
| Cn1cc(C(=O)NCCc2ncc(C(F)(F)F)cc2Cl)c(C(F)(F)F)n1 [Compound J-54] | – | ≥ 50 | – |
| CC(C)(C)c1cc(C(=O)NCCc2ncc(C(F)(F)F)cc2Cl)n(Cc2ccccc2)n1 [Compound K-3] | ≥ 50 | – | – |
| O=C(NCCc1ncc(C(F)(F)F)cc1Cl)c1ccnn1-c1ccccc1 [Compound K-5] | ≥ 50 | – | – |
| CCn1nc(C)c(Br)c1C(=O)NCCc1ncc(C(F)(F)F)cc1Cl [Compound K-6] | ≥ 50 | ≥ 50 | – |
| Cc1noc(C)c1C(=O)NCCc1ncc(C(F)(F)F)cc1Cl [Compound M-2] | ≥ 50 | – | – |
| Cc1onc(-c2ccccc2Cl)c1C(=O)NCCc1ncc(C(F)(F)F)cc1Cl [Compound M-4] | ≥ 50 | ≥ 50 | – |
| O=C(NCCc1ncc(C(F)(F)F)cc1Cl)c1ccno1 [Compound N-1] | ≥ 50 | – | – |
| Cc1nn(-c2ccccc2)nc1C(=O)NCCc1ncc(C(F)(F)F)cc1Cl [Compound O-1] | ≥ 50 | – | – |
| Cc1nnsc1C(=O)NCCc1ncc(C(F)(F)F)cc1Cl [Compound P-1] | – | ≥ 50 | – |
| O=C(NCCc1ncc(C(F)(F)F)cc1Cl)c1ncc(C(F)(F)F)cc1Cl [Compound Q-1] | ≥ 50 | – | – |
| O=C(NCCc1ncc(C(F)(F)F)cc1Cl)c1nc(Cl)ccc1Cl [Compound Q-2] | ≥ 50 | – | – |
| O=C(NCCc1ncc(C(F)(F)F)cc1Cl)c1cccnc1 [Compound R-5] | ≥ 50 | – | – |
| O=C(NCCc1ncc(C(F)(F)F)cc1Cl)c1cccnc1Sc1ccccc1 [Compound R-6] | ≥ 50 | – | – |
| O=C(NCCc1ncc(C(F)(F)F)cc1Cl)c1cccnc1Oc1ccc(Cl)cc1 [Compound R-7] | ≥ 50 | – | – |
| Cc1nc(C(F)(F)F)ccc1C(=O)NCCc1ncc(C(F)(F)F)cc1Cl [Compound R-15] | ≥ 50 | ≥ 50 | – |
| O=C(NCCc1ncc(Cl)cc1F)c1cccnc1Cl [Compound R-24] | ≥ 50 | – | ≥ 50 |
| Cc1cc(C(=O)NCCc2ncc(C(F)(F)F)cc2Cl)cc(Cl)n1 [Compound S-2] | ≥ 50 | ≥ 50 | – |
| O=C(NCCc1ncc(C(F)(F)F)cc1Cl)c1ccnc(Cl)c1 [Compound S-5] | ≥ 50 | – | – |
